Experiment: xn = mol fraction of the nth substance listed

CCCCCCCCn1cc[n+](C)c1.F[B-](F)(F)F + CC1COC(=O)O1
Settings | viscosity [mPa·s]
303.15 K, 99.7 kPa, x2 = 0.4086 | 38.9

CCCC[N+]1(C)CCCC1.O=S(=O)([N-]S(=O)(=O)C(F)(F)F)C(F)(F)F + CC1COC(=O)O1
Settings | electrical conductivity [S/m] | viscosity [mPa·s]
253.15 K, 101 kPa, x2 = 0.11 | 0.026 | –
253.15 K, 101 kPa, x2 = 0.21 | 0.04 | –
253.15 K, 101 kPa, x2 = 0.47 | 0.108 | –
253.15 K, 101 kPa, x2 = 0.63 | 0.183 | –
253.15 K, 101 kPa, x2 = 0.79 | 0.27 | –
253.15 K, 101 kPa, x2 = 0.89 | 0.283 | –
258.15 K, 101 kPa, x2 = 0.16 | 0.052 | –
258.15 K, 101 kPa, x2 = 0.26 | 0.073 | –
258.15 K, 101 kPa, x2 = 0.58 | 0.199 | –
263.15 K, 101 kPa, x2 = 0.05 | 0.053 | –
263.15 K, 101 kPa, x2 = 0.37 | 0.14 | –
263.15 K, 101 kPa, x2 = 0.53 | 0.225 | –
268.15 K, 101 kPa, x2 = 0.68 | 0.418 | –
273.15 K, 101 kPa, x2 = 0 | 0.109 | –
273.15 K, 101 kPa, x2 = 0.26 | 0.195 | –
273.15 K, 101 kPa, x2 = 0.42 | 0.281 | –
273.15 K, 101 kPa, x2 = 0.74 | 0.535 | –
278.15 K, 101 kPa, x2 = 0.26 | 0.253 | –
278.15 K, 101 kPa, x2 = 0.95 | 0.504 | –
283.15 K, 101 kPa, x2 = 0.05 | 0.212 | –
283.15 K, 101 kPa, x2 = 0.16 | 0.257 | –
283.15 K, 101 kPa, x2 = 0.37 | 0.382 | –
283.15 K, 101 kPa, x2 = 0.58 | 0.557 | –
283.15 K, 101 kPa, x2 = 0.68 | 0.654 | –
283.15 K, 101 kPa, x2 = 0.89 | 0.698 | –
283.15 K, 101 kPa, x2 = 0.95 | 0.566 | –
283.15 K, 101 kPa, x2 = 0.97 | 0.458 | –
288.15 K, 101 kPa, x2 = 0.26 | 0.384 | –
288.15 K, 101 kPa, x2 = 0.47 | 0.547 | –
288.15 K, 101 kPa, x2 = 0.74 | 0.787 | –
288.15 K, 101 kPa, x2 = 0.79 | 0.817 | –
293.15 K, 100 kPa, x2 = 0.8 | 0.93 | 7.8
293.15 K, 101 kPa, x2 = 0 | 0.303 | 86.1
293.15 K, 101 kPa, x2 = 0.53 | 0.689 | 21.23
293.15 K, 101 kPa, x2 = 0.79 | 0.91 | 7.77
298.15 K, 101 kPa, x2 = 0.32 | 0.581 | 28.28
298.15 K, 101 kPa, x2 = 0.37 | – | 25.45
298.15 K, 101 kPa, x2 = 0.42 | 0.678 | 22.81
298.15 K, 101 kPa, x2 = 0.63 | 0.892 | 12.82
303.15 K, 101 kPa, x2 = 0.21 | 0.574 | 29.14
303.15 K, 101 kPa, x2 = 0.42 | 0.771 | 19
303.15 K, 101 kPa, x2 = 0.63 | 1.001 | 10.87
303.15 K, 101 kPa, x2 = 0.74 | 1.091 | 7.36
303.15 K, 101 kPa, x2 = 0.84 | 1.099 | 4.68
308.15 K, 101 kPa, x2 = 0.37 | 0.816 | 17.76
313.15 K, 101 kPa, x2 = 0.21 | 0.75 | 20.27
313.15 K, 101 kPa, x2 = 0.32 | 0.858 | 16.62
313.15 K, 101 kPa, x2 = 0.47 | 1.036 | 12.28
313.15 K, 101 kPa, x2 = 0.79 | 1.3 | 4.64
313.15 K, 101 kPa, x2 = 0.84 | 1.271 | 3.75
313.15 K, 101 kPa, x2 = 0.97 | 0.721 | –
318.15 K, 101 kPa, x2 = 0 | – | 29.72
318.15 K, 101 kPa, x2 = 0.05 | – | 25.14
318.15 K, 101 kPa, x2 = 0.47 | – | 10.64
318.15 K, 101 kPa, x2 = 0.89 | – | 2.77

100 kPa, frequency 0.003 MHz
Settings | electrical conductivity [S/m]
297.1 K, x1 = 0.8 | 0.396
299.8 K, x1 = 0.4 | 0.804
299.9 K, x1 = 0.8 | 0.413
310.9 K, x1 = 0.8 | 0.527
313.5 K, x1 = 0.4 | 0.931
313.7 K, x1 = 0.2 | 1.15
313.7 K, x1 = 0.8 | 0.552
316.2 K, x1 = 0.2 | 1.17
319.3 K, x1 = 0.6 | 0.727
322.3 K, x1 = 0.9 | 0.559
327.6 K, x1 = 0.6 | 0.788
330.3 K, x1 = 0.2 | 1.26
330.6 K, x1 = 0.9 | 0.636
338.9 K, x1 = 0.2 | 1.31
338.9 K, x1 = 0.8 | 0.768
341.4 K, x1 = 0.8 | 0.788
341.6 K, x1 = 0.6 | 0.886
346.8 K, x1 = 0.4 | 1.18
349.7 K, x1 = 0.4 | 1.21
